According to PMC9367001 (Journal of Chemical Theory and Computation, 2022):

Molecular target: IN05 HA trimer
Assay type: binding, influenza A/Indonesia/5/2005 (H5 subtype)

## α2,6-linked sialyl lactosamine [6-SLN]
  KD,MST: no detectable binding
